Earlier results, collected in article PMC3967229 (Marine Drugs, 2014).
Like-named read-outs stand apart in the source and are kept apart here.

Columns and labels:
[1] = test system: HDACs 1, 2 and 3
[2] = test system: MDA-MB-231 cells; design: method as in PMID 22543582; conditions: 10 mg/kg/day, together with dexamethasone
[3] = test system: HCT116 tumor; conditions: i.p.
[4] = protein-assisted mechanism
[5] = not given; remark: listed apart in the source
[6] = rabbit in vivo model
[7] = 5 mg/kg/day
[8] = mouse in vivo model
[9] = not given; remark: listed apart in the source
[10] = design: method as in earlier work

For largazole thiol, which “Potency against HDAC isoforms” value [1] is on record?
Its value is “subnanomolar”.

With `C/C=C1\NC(=O)[C@H]2CSSCC/C=C/[C@H](CC(=O)N[C@H](C(C)C)C(=O)N2)OC(=O)[C@H](C(C)C)NC1=O` [romidepsin] as the compound, how does the “Volume of distribution (Vdss)” value read?
The value was 22.3 L/kg.

What does the source list for `CCCCCCCC(=O)SCC/C=C/[C@@H]1CC(=O)NCc2nc(cs2)C2=N[C@@](C)(CS2)C(=O)N[C@@H](C(C)C)C(=O)O1` [largazole]?
Invasiveness of orthotopic MDA-MB-231 tumors [2]: reducing the invasiveness; HCT116 tumor growth ([3]; colon tumor xenograft mouse model): retarding HCT116 tumor growth; Acute toxicity ([3]; up to the highest dose tested (50 mg/kg), mouse): without acute toxicity; Conversion to largazole thiol in mouse serum [4]: rapidly converted; Cellular activity [5]: low-nanomolar; Bone-forming activity [6]: bone-forming activity; Liver fibrosis [7]: decreased liver fibrosis; Bone-forming activity [8]: bone-forming activity

Which results are given for `O=C(CCCCCCC(=O)Nc1ccccc1)NO` [vorinostat, Suberoylanilide hydroxamic acid]?
Plasma protein binding, bound to human plasma [9]: 71.3%; Cellular activity [5]: micromolar; Clearance [10]: 55 mL/min/kg; Vdss [10]: 0.6 L/kg
